Earlier results on one substance are cited in patent EP1385541B1, “IMMUNOSTIMULANT COMPOSITIONS COMPRISING AN AMINOALKYL GLUCOSAMINIDE PHOSPHATE AND QS-21” (priority 2000, dated 2001).

Like-named read-outs stand apart in the source and are kept apart here. A value given as a limit tells only on which side of the number the result lay.

The subject of one series is sheep red blood cells. The conditions noted are these: substantially pure QS-21 saponin, as described in U.S. Patent No. 5,057,540.

As to QS-21, the “hemolysis of sheep red blood cells at concentrations of” value in the series on sheep red blood cells was at least 25 µg/mL. Besides, the critical micellar concentration by setting is: (in phosphate buffered saline) ~0.02 % (w/v); (in water) “about 0.03 % (w/v)”.
